Source: article PMC5590105 (Chemical communications (Cambridge, England), 2017)

Target: T1, heparanase (Homo sapiens, UniProt Q9Y251)
T1 sequence (Q9Y251 158-543 limits assumed): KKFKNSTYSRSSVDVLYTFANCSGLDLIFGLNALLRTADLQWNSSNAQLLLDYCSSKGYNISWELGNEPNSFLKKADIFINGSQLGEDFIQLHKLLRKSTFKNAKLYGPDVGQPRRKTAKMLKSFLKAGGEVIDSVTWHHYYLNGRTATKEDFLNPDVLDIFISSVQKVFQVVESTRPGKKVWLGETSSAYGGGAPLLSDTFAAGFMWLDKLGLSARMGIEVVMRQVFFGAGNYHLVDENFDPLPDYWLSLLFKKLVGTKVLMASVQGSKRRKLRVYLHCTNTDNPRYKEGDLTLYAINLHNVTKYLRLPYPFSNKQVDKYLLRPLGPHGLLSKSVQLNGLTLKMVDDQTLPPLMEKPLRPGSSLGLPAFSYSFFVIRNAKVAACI
T1 sequence (Q9Y251 36-109 limits assumed): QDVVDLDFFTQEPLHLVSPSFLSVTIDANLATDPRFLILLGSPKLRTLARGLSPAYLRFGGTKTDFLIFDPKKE
Test: colorimetric WST-1 assay of cleavage by heparanase
Type: biochemical
Conditions: WST-1 colorimetric assay, over 21 h

- hydrolysis by heparanase: readily cleaved by heparanase
Compound: CO[C@H]1O[C@H](COS(=O)(=O)O)[C@@H](O[C@@H]2O[C@@H](C(=O)O)[C@@H](O[C@H]3O[C@H](COS(=O)(=O)O)[C@@H](O[C@@H]4O[C@H](C(=O)O)[C@@H](O[C@H]5O[C@H](COS(=O)(=O)O)[C@@H](O)[C@H](O)[C@H]5NS(=O)(=O)O)[C@H](O)[C@H]4O)[C@H](OS(=O)(=O)O)[C@H]3NS(=O)(=O)O)[C@H](O)[C@H]2OS(=O)(=O)O)[C@H](O)[C@H]1NS(=O)(=O)O [Fondaparinux]
